Assay results from patent publication US20040034107A1, “Ubiquinone Qn for the treatment of pain” (MSE Pharmazeutika GmbH, priority 1999, published 2004).

Legend:
[1] = local treatment of herpes zoster pain; type: in vivo; conditions: local application in the form of creams or gels
From the text: In the case of herpes zoster, even the local application of Q-10 in the form of creams or gels has even proven useful. It is critical that sufficient amounts of the ubiquinones or ubiquinone precursors arrive at the place in which the pain caused by disturbances of the signal transmission of the nerve system has its origin.

[2] = treatment of migraine pain with Q-10; type: in vivo
Experimental: The substances to be used according to the invention can be preferably employed for the treatment of pain which is caused by migraine, dialysis, herpes zoster, cancer, diabetic neuropathy, or generalized pain conditions. The treatment can be done by administration in oral, parenteral, local, inhalative or intranasal form. The kind of administration must be adapted to the pain condition to be treated. […] Good results were achieved already with doses of about 20 mg.
Due to the low dose which is already effective for treating migraine pain, the ubiquinone Qn or its precursors are preferably used in the form of a spray, preferably a nasal spray, according to the invention.

COC1=C(OC)C(=O)C(C/C=C(\C)CC/C=C(\C)CC/C=C(\C)CC/C=C(\C)CC/C=C(\C)CC/C=C(\C)CC/C=C(\C)CC/C=C(\C)CC/C=C(\C)CCC=C(C)C)=C(C)C1=O [Q-10, 2,3-dimethoxy-5-methyl-6-decaprenyl-1,4-benzoquinone]
treatment of herpes zoster pain [1]: proven useful | treatment of migraine ([2]; oral administration, high doses): only with very limited success | elimination of migraine pain ([2]; oral and nasal sprays, small amounts): fast and effective elimination of migraine pain | results in migraine pain ([2]; sprays, doses of about 20 mg): Good results
